For orientation: IC50 means the midpoint of a concentration-inhibition curve.

In US9562031B1, “Phenethyldihydrobenzodioxolones and methods of use” (Sequoia Sciences, Inc., priority 2015, dated 2017) one finds IC50 data, which are given here for one molecule.

Molecules are shown by their SMILES.

Experiment [1] concerns NCI-H460 (large cell lung carcinoma) cells. In words: antiproliferation assay (72 h, CELLTITER 96), NCI-H460. Type of experiment: cell-based, human. Particulars: Homo sapiens, NCI-H460, Table 4; read-out: NCI-H460 IC50. The method in brief:
(§1)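 Human M14 melanoma and NCI-H460 lung carcinoma cells in RPMI-1640/10% FBS, seeded at 5×10^2–5×10^4 cells/well and adhered overnight, then exposed to seven compound concentrations for 72 h at 37 °C. Viable cells read by CellTiter 96 AQueous (MTS); IC50 = concentration giving 50% of maximal growth inhibition.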

Experiment [2] concerns M14 (amelanotic melanoma) cells. In words: antiproliferation assay (72 h, CELLTITER 96), M14. Type of experiment: cell-based, human. As to conditions: Homo sapiens; Table 4. The method in brief:
as §1

Experiment [3] relates to NCI-H441 cells. In words: antiproliferation assay, NCI-H441. Type of experiment: cell-based. As to conditions: Homo sapiens. As for the experimental part: (§2) For the antiproliferation assay, NCI-H460 (large cell lung carcinoma) or M14 (amelanotic melanoma) cells were grown in RPMI-1640 with 10% FBS supplemented with L-glutamine and HEPES. Cells were seeded into 96-well plates at 5×10^2 to 5×10^4 cells/well and allowed to adhere overnight; the medium was then removed. A stock solution of test compound in DMSO was diluted in medium to generate a series of working solutions. Aliquots (100 μl) of the working solutions were then added to the appropriate test wells to expose cells to the final concentrations of compound in a total volume of 100 μl. Seven different concentrations were tested, with 2-5 wells per concentration. Camptothecin was used as a positive control; wells containing vehicle without compound were used as negative controls. Plates were kept for 72 h in a 37° C., 5% CO2 incubator. After incubation, viable cells were detected with the CELLTITER 96 AQueous Non-Radioactive Cell Proliferation Assay (Promega), and IC50 values were determined using GraphPad Prism 5 software.
(§3) Antiproliferation of several of the active compounds was tested against additional cell lines.

Experiment [4] has as its system HCT-116 cells. In words: antiproliferation assay, HCT-116. Type of experiment: cell-based. Particulars: Homo sapiens. On the procedure:
as §2, §3

The test system of experiment [5] is LOX-IMVI cells. In words: antiproliferation assay, LOX-IMVI. Particulars: Homo sapiens. The format is cell-based. On the procedure:
as §2, §3

Experiment [6] deals with NCI/ADR-RES cells. In words: antiproliferation assay, NCI/ADR-RES. The format is cell-based. As to conditions: Homo sapiens. As for the experimental part:
as §2, §3
Compound 4 was tested for antiproliferation activity against several paclitaxel-resistant human cancer cell lines.

The test system of experiment [7] is NCI-H526 cells. As to the kind of experiment: antiproliferation assay, NCI-H526. The format is cell-based. As to conditions: Homo sapiens. On the procedure:
as §2, §3

Experiment [8] concerns NCI-H187 cells. In words: antiproliferation assay, NCI-H187. The format is cell-based. As to conditions: Homo sapiens. On the procedure:
as §2, §3

For `C=CC[C@H]1C[C@]2([C@@H](C)Cc3ccc(OC)c(O)c3)OCOC2=CC1=O` [Compound 32, (6S,7aR)-6-allyl-7a-((S)-1-(3-hydroxy-4-methoxyphenyl)propan-2-yl)-7,7a-dihydrobenzo[d][1,3]dioxol-5(6H)-one], the IC50 in experiment [1] was 83 nM; in experiment [2], 7.9 nM; in experiment [3] it was 140 nM; in experiment [4] it was 13 nM; in experiment [5], 12 nM; in experiment [6], 38 nM. Further, the IC50 in experiment [7] was found to be 79 nM; in experiment [8] it was 46 nM.
